In patent US10172826B2, “Composition and method to treat and alleviate symptoms of hot flashes in a subject” (U.S. NUTRACEUTICALS, LLC, priority 2015, dated 2019):

Columns and labels:
[1] = test system: endometrial, breast and lung cancer cell lines; conditions: compared with alpha or beta-carotene; cited from earlier work
[2] = test system: hot flashes in female subjects experiencing symptoms of perimenopause; experiment: Clinical trial of dietary supplement formulas on frequency and severity of hot flashes; type: in vivo, women; conditions: summary of the trials
Experimental: In a clinical trial explained below, 36 mg of HMR Lignan was used and in another example, 20 mg was initially used. In the same clinical trial, the carotenoid such as lycopene was used. The lycopene could be formed as a lycopene complex that includes at least one of phytoene, phytofluene, beta-carotene, tocopherols and phytosterols. In an example, 2 to 10 mg of lycopene was used and in another example, 4 to 8 mg of lycopene was used. In a clinical trial explained below, either 8 or 4 mg of lycopene was used and in an example, 0 mg in order to determine the efficacy of the lycopene relative to the HMR Lignan and other components. The composition also included 40 to 120 mg of Diindolymethane (DIM) or 30 to 140 mg of Diindolymethane, and in an example, 50 milligrams of DIM was used in one trial and 100 milligrams in another trial. About 40 to 80 mg of cranberry was used and in an example, 60 milligrams of cranberry was used as cranberry powder, which gave the coloring and other benefits. Cranberry is used to help relieve adverse urinary symptoms and aid and treat urinary tract infections. Other carotenoids that may possibly be used include at least one of astaxanthin, zeaxanthin, lutein, and xanthophylis.
A study was conducted to evaluate the effectiveness of a dietary supplement formulation on the reduction and severity of hot flashes in women. […]

[3] = cited from earlier work
[4] = test system: estrogen sensitive human breast and endometrial cancer cells; conditions: cell cycle progression in G0/G1 phase; cited from earlier work
aromatase = target: T1, aromatase (Homo sapiens, UniProt P11511); conditions: cited from earlier work
T1 sequence (P11511 1-503): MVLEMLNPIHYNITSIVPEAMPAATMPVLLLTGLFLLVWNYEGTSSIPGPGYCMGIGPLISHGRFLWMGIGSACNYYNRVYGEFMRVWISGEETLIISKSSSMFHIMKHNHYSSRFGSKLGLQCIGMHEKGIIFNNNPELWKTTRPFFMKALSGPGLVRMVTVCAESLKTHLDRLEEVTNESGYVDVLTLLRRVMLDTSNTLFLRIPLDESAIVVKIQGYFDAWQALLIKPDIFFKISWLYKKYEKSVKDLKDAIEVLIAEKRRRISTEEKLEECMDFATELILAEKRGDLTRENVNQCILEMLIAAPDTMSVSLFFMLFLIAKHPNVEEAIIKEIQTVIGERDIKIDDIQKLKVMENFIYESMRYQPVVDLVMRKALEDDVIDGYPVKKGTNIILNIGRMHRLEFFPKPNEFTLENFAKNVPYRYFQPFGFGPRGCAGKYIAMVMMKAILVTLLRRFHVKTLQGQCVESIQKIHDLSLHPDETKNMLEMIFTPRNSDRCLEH

[5] = major metabolite of sesamin; cited from earlier work

SMILES | Inhibition of proliferation, relative potency [1] | Conclusion on control of hot flashes [2] | Solubility in water [3] | Inhibition of IGF-1 induced proliferation [4] | Aromatase activity (aromatase) | Elimination half life [5]
CC(C)=CCC/C(C)=C/C=C/C(C)=C/C=C/C(C)=C/C=C/C=C(C)/C=C/C=C(C)/C=C/C=C(\C)CCC=C(C)C [Lycopene] | more potent that alpha or beta-carotene | work alone to control hot flashes | insoluble | inhibit |  | 
O=C1OC[C@H](Cc2cccc(O)c2)[C@H]1Cc1cccc(O)c1 [Enterolactone, enterolactone] |  |  |  |  | inhibit aromatase activity | less than 6 hours
